Test results reported in patent US11167059B2, “Compositions with reactive ingredients, and wound dressings, apparatuses, and methods” (KCI Licensing, Inc., priority 2010, dated 2021).

Columns and labels:
Type in all cases: cell-based
[1] = tested on: Pseudomonas aeruginosa ATCC 27853; test: Minimum Biofilm Eradication Concentration (MBEC), P. aeruginosa; settings: Pseudomonas aeruginosa ATCC 27853 biofilm on probe, 5 minutes per cycle, % w/v Ca(OCl)2
Protocol: (§1) Referring now to FIG. 17, the experiments described above for FIG. 14 were also performed with additional foams, one foam in which 1 gram of Calcium hypochlorite salt was infused (D100, shown as left column for each cycle), and one foam in which 2 grams of Calcium hypochlorite salt was dispersed (D200, shown as right column for each cycle). […] As discussed additionally below, the minimum concentration is significant because testing identified concentrations of hypochlorite-ion as low as 0.5-0.7 mM to have effective antibacterial and antimicrobial properties. Additional testing was performed to measure the zone of inhibition (ZOI) and Log Reduction of microbes for various samples of released aqueous solutions having various concentrations of hypochlorite ion, as listed in Tables 2 and 3. Table 2 lists ZOI and Log reduction data for a single cycle measured at hold times (exposure duration) of 30 seconds and 5 minutes of bacterial exposure to solution. Table 3 lists ZOI and Log reduction data for multiple cycles (each cycle including introduction of hypochlorite solution, and removal of solution prior to beginning next cycle). In the ZOI experimentation, foam discs having a diameter of 8 millimeters (mm) and a height of 5 mm were each saturated with hypochlorite-ion solution as indicated. Table 3 also lists the initial microbe count in log form (10^X, where X is listed in Table 2), log reduction in microbe count, and ZOI in mm. For the data of Table 3, the initial concentration (1×) of hypochlorite ion in solution was 5.7 mM of hypochlorite ion, which corresponds to 0.041% w/v of Ca(OCl)^2. In the Log reduction experimentation, the microbes were exposed to the respective concentration of solution for 30 seconds per cycle. […] The bold entries in Table 3 are indicative of substantially all microbes being killed. In the biofilm eradication cycles listed in Table 6 below, probes were cultured with microbes and incubated to permit formation of a biofilm on the probe. […]

[2] = tested on: Staphylococcus aureus USA 400 (MRSA); test: Minimum Biofilm Eradication Concentration (MBEC), S. aureus USA 400 (MRSA); settings: Staphylococcus aureus USA 400 (MRSA) biofilm on probe, 5 minutes per cycle, % w/v Ca(OCl)2
Protocol: as §1

[3] = tested on: Staphylococcus aureus ATCC 10832; test: Minimum Biofilm Eradication Concentration (MBEC), S. aureus ATCC 10832; settings: Staphylococcus aureus ATCC 10832 biofilm on probe, 5 minutes per cycle, % w/v Ca(OCl)2
Protocol: as §1

[4] = tested on: Staphylococcus aureus USA 400 (MRSA); test: Minimum Bactericidal Concentration (MBC), S. aureus USA 400 (MRSA); settings: % w/v Ca(OCl)2 in water
Protocol: as §1

[5] = tested on: Staphylococcus aureus ATCC 10832; test: Minimum Bactericidal Concentration (MBC), S. aureus ATCC 10832; settings: % w/v Ca(OCl)2 in water
Protocol: as §1

[6] = tested on: Staphylococcus aureus ATCC 10832; test: Minimum Inhibitory Concentration (MIC), S. aureus ATCC 10832; settings: % w/v Ca(OCl)2 in water

## hypochlorite ion [OCl^− Solutions]
[1]; 1 Cycle
  Minimum Biofilm Eradication Concentration (MBEC) 1 Cycle: >0.041% w/v
[1]; 3 Cycles
  Minimum Biofilm Eradication Concentration (MBEC) 3 Cycles: 0.021% w/v
[1]; 5 Cycles
  Minimum Biofilm Eradication Concentration (MBEC) 5 Cycles: 0.041% w/v
[2]; 1 Cycle
  Minimum Biofilm Eradication Concentration (MBEC) 1 Cycle: <0.005% w/v
[2]; 3 Cycles
  Minimum Biofilm Eradication Concentration (MBEC) 3 Cycles: <0.005% w/v
[2]; 5 Cycles
  Minimum Biofilm Eradication Concentration (MBEC) 5 Cycles: <0.005% w/v
[3]; 1 Cycle
  Minimum Biofilm Eradication Concentration (MBEC) 1 Cycle: <0.005% w/v
[3]; 3 Cycles
  Minimum Biofilm Eradication Concentration (MBEC) 3 Cycles: <0.005% w/v
[3]; 5 Cycles
  Minimum Biofilm Eradication Concentration (MBEC) 5 Cycles: <0.005% w/v
[4]; 1 Cycle
  Minimum Bactericidal Concentration (MBC) 1 Cycle: <0.005% w/v
[4]; 3 Cycles
  Minimum Bactericidal Concentration (MBC) 3 Cycles: <0.005% w/v
[4]; 5 Cycles
  Minimum Bactericidal Concentration (MBC) 5 Cycles: <0.005% w/v
[5]; 1 Cycle
  Minimum Bactericidal Concentration (MBC) 1 Cycle: <0.005% w/v
[5]; 3 Cycles
  Minimum Bactericidal Concentration (MBC) 3 Cycles: <0.005% w/v
[5]; 5 Cycles
  Minimum Bactericidal Concentration (MBC) 5 Cycles: <0.005% w/v
[6]; 1 Cycle
  Minimum Inhibitory Concentration (MIC) 1 Cycle: <0.005% w/v
[6]; 3 Cycles
  Minimum Inhibitory Concentration (MIC) 3 Cycles: <0.005% w/v
[6]; 5 Cycles
  Minimum Inhibitory Concentration (MIC) 5 Cycles: <0.005% w/v
